Measured values published in patent publication US10213451B2, “Methods and compounds for modulating the secretion or expression of adhesion proteins or angiopoietins of cells” (PACIFIC ARROW LIMITED, priority 2004, dated 2019).
“Also recorded” adds a separate entry of the source.

Key:
OVCA 429 = test: MTT assay OVCA 429; assay type: cell-based; conditions: Homo sapiens, OVCA429; OVCA 429, Serous
Protocol: (§1) Majority of ovarian cancers arise from the surface epithelium of ovary, most of them belong to the histological subtypes of clear cell and serous carcinoma. We obtained 10 more human ovarian carcinoma cell-lines of these histological subtypes for these studies. The inhibition activity exerted by Xanifolia-Y was determined with MTT assay.

OVCA 433 = test: MTT assay OVCA 433; assay type: cell-based; conditions: Homo sapiens, OVCA433; OVCA 433, Serous
Protocol: as §1

[1] = tested on: ES2 (human ovarian cancer) cells transplanted intra-peritoneally; test: Animal study, survival of mice with intra-peritoneal ES2 tumor; assay type: in vivo, Athymic Nu/Nu mice; conditions: for survival of tumor bearing mice: 2.5 mg/kg; for median survival time: i.p. 2.5 mg/kg
Protocol: Methods • Athymic Nu/Nu mice are divided into three groups (A, B and C) with four animals in each group. • On day 0, mice of group A and B were transplanted intra-peritoneally with ES2 (human ovarian cancer) cells. • On day 1, mice from B and C groups received drug (Xanifolia-Y, by i.p. route at dose of 5 mg/kg) • On days 2 to 4, and 7 to 11, B and C groups animals received daily drug administration of Xanifolia-Y, by i.p. route at dose of 2.5 mg/kg. • Group A mice have no drug-treatment.
Methods • Athymic Nu/Nu mice were divided into three groups (A, D and E) with four animals in each group. • On day 0, all mice were transplanted intra-peritoneally with ES2 (human ovarian cancer) cells. • Group A mice received no drug-treatment. • Group D: From day 4, mice received a daily drug administration of Xanifolia-Y, via i.p. route for 9 days at dose of 2.5 mg/kg. • Group E: From day 10, mice received daily drug administration of Xanifolia-Y, via i.p. route for 10 days at dose of 2.5 mg/kg. […]

[2] = tested on: ES2 cells attached to flasks; test: Inhibition of cell adhesion to flasks, ES2; assay type: cell-based
Protocol: (§2) Methods and Results. ES2 or Hey8A cells were plated in T25 flasks with medium containing 5 ug/ml of Xanifolia-Y. Cultures were incubated for 5 hours. Attached cells were removed from flasks by trypsinization and the amounts were counted. Compare to no drug controls, 86±4% of ES2 cells and 67±8% of Hey8A cells were found attached to flasks under this condition. At 5 ug/ml Xanifolia-Y, over 90% of unattached cells are alive as determined by the trypan Blue exclusion assay and by their ability to re-attach to flasks when plating in medium without Xanifolia-Y. However, with 10 ug/ml Xanifolia-Y, less than 40% of cells attached to flasks and many of them are dead cells.
as §2, with “Results:” for “Results.”

[3] = tested on: Hey8A cells inoculated into peritoneal cavity; test: Nodule formation in peritoneal cavity, Hey8A; assay type: in vivo, nu/nu mice; conditions: 0.25 mg/kg i.p. daily 5 days per week for two-three weeks
Excerpt: (§3) The relationship between the nodule formation and timelines during tumor progression are established. Usually, 4 to 6 nodules are formed during the entire period of tumor progression in this system (Lander Jr., et al., 2005). We start the drug-treatment at times equivalent to 20% and 50% of full tumor progression. At these times, the number of nodule is less and the size (weight) of the nodules is smaller. At the end of the drug-treatment, animals are euthanized and number of tumor nodules is determined and the tumor size (mass) is weighted.
(§4) Animals: 40 nu/nu mice are used per experiment.
(§5) 2 groups of mice (20 each) (i) Drug-treatment start at time equivalent to 20% of full tumor progression (or on 4 days after tumor inoculation) (ii) Drug-treatment starts at time equivalent to 50% of full tumor progression (or on 10 days after tumor inoculation). On the day of starting drug-treatment, half of the animals (10) will be scarified and the number and weight of nodules will measured.
(§6) Drug-Treatments: Animals are administered daily for 5 days per week for two—three weeks. Dose: 0.25 mg/kg, through i.p. route.

[4] = tested on: ES2 cells inoculated into peritoneal cavity; test: Nodule formation in peritoneal cavity, ES2; assay type: in vivo, nu/nu mice; conditions: ES2, 0.25 mg/kg i.p. daily 5 days per week for two-three weeks
Excerpt: as §3, §4, §5, §6

[5] = drug-treatment started on day 10 after tumor inoculation
[6] = drug-treatment starting on day 4 after tumor inoculation

C/C=C(/C)C(=O)O[C@H]1[C@H](OC(=O)/C(C)=C\C)[C@@]2(CO)C(CC1(C)C)C1=CCC3[C@@]4(C)CC[C@H](O[C@@H]5OC(C(=O)O)[C@@H](O)C(O[C@@H]6O[C@@H](CO)C(O)C6O)C5O[C@@H]5OC(CO)[C@H](O)C(O)C5O)C(C)(C)C4CC[C@@]3(C)[C@]1(C)[C@@H](O)[C@H]2O (stereo partly drawn) [Xanifolia-Y, 3-O-[β-D-galactopyranosyl (1→2)]-α-L-arabinofuranosy (1→3)-β-D-glucuronopyranosyl-21,22-O-diangeloyl-3β, 15α, 16α, 21β, 22α, 28-hexahydroxyolean-12-ene] was tested, and the IC50 (OVCA 429) was 7 µM, the IC50 (OVCA 433) was 8.8 µM and the “survival of mice without tumor given drug” value ([1]; Group C: no tumor, i.p. 5 mg/kg day 1, 2.5 mg/kg days 2-4 and 7-11) was “over 50 days”. The “survival of tumor bearing mice” value ([1]; Group D: i.p. 2.5 mg/kg daily, 9 times from day 4) was “all survived; also recorded: no death in 50 days”, the “survival of tumor bearing mice” value ([1]; Group E: i.p. 2.5 mg/kg daily, 10 times from day 10) was “half the number of mice survived; also recorded: half of the mice survive in 50 days” and the “extension of life span” value [1, 5] was 29%. For the same compound, the “extension of life span” value [1, 6] was 141%, the median survival time [1, 5] was 31 days and the median survival time [1, 6] was 58 days. For the same compound, the “cells attached to flasks, compared to no drug controls” value ([2]; ES2 cells, 5 ug/ml, 5 hours) was 86±4%, the “unattached cells alive (trypan Blue exclusion, re-attachment)” value ([2]; ES2 or Hey8A cells, 5 ug/ml) was “over 90%” and the “cells attached to flasks” value ([2]; ES2 or Hey8A cells, 10 ug/ml) was “less than 40%”. The “numbers of tumor nodules” value [3] was “less”, the size of tumor [3] was “smaller” and the “numbers of tumor nodules” value [4] was “less”. For the same compound, the size of tumor [4] was “smaller”.
